According to patent publication US8765713B2, “Method for determination of sensitivity to anti-cancer agent” (Keio University, priority 2009, dated 2014):

Tests used:
HCT116 cells [1] = experiment: Intracellular protein level after drug exposure by SELDI-TOF MS, HCT116; format: cell-based, human; conditions: 4 to 48 hours
Procedure: (§1) Based on the results of (c) above, the drug concentration employed in the exposure test was determined. The 5-FU+L-OHP combination concentration was adjusted to the following four levels: 2 μ[…], and 100 μM+10 μM, the 5-FU concentration (exposure to single agent) was adjusted to 2 μM and 100 μM, and the L-OHP concentration (exposure to single agent) was adjusted to 1 μM and 10 μM. In addition, the exposure test was conducted at a drug-free concentration (control). That is, nine concentrations in total were employed. Drug exposure time was adjusted to the following five periods of time: 0 hour (just before exposure), 4 hours, 12 hours, 24 hours, and 48 hours. After completion of exposure, cell count was performed, and intracellular proteins were extracted. The medium was removed from the dish and washed thrice with ice-cooled PBS. The cells on the dish was collected by scraping with a rubber policeman. The thus-obtained cell suspension was transferred to a 1.5-mL microtube. The cell suspension was centrifuged at 4° C. and 1,200×g for 10 minutes, and the cells were recovered. After removal of the supernatant, a cell lysis buffer (9 mol/L urea, 2% CHAPS, 1 mM DTT, protease-inhibitor cocktail (Sigma)) was added in a volume of 200 μL with respect to 10,000,000 cells. The liquid was subjected to untrasonic treatment under cooling with ice. The thus-treated product was centrifuged at 4° C. and 16,000×g for 20 minutes, and the supernatant was quickly frozen with liquid nitrogen. The frozen product was stored at -80° C. before analysis. An aliquot of the supernatant was subjected to protein quantification (DC Protein Assay Kit, Bio-Rad). The protein sample was mixed with a cell lysis buffer (excluding protease inhibitor), to thereby adjust the protein concentration to 2.5 mg/mL. The liquid was further mixed with a dilution/washing buffer (pH: 4.5, 50 mM sodium acetate buffer) (hereinafter referred to simply as “buffer”), to a protein concentration of 0.5 mg/mL. The thus-prepared sample (100 μL) was applied to spots of a cation-exchange ProteinChip array (CM10, Bio-Rad) which had been conditioned in advance with the same buffer. Incubation was performed for one hour for reaction, and the chip array was washed thrice with the buffer and rinsed twice with milliQ water, followed by drying in air. Energy absorbing molecule (EAM: saturated solution of sinapinic acid in 50% ACN/0.5% TFA) (1.0 μL ([…])) was added to each spot. After the surface of the spot was dried, analysis of the ProteinChip array was performed. […] As an analyzer, ProteinChipTM Reader (Model PCS4000 Personal Edition, Bio-Rad) was used and the analysis was performed under the following conditions: mass range of 0 to 70,000 Da, focus mass of 8,000 Da, energy of 3,000 or 4,000 nJ, and 265 shots/sample. […]

DLD-1 cells [2] = experiment: Intracellular protein level after drug exposure by SELDI-TOF MS, DLD-1; format: cell-based, human; conditions: DLD-1, SELDI-TOF MS, 4 to 48 hours
Procedure: as §1

DLD-1 cells [3] = experiment: MTS assay cell viability after drug exposure, DLD-1
Procedure: (§2) Two human colorectal cancer cell lines (HCT116 and DLD-1) were obtained from ECACC. Cell culturing was performed by means of a φ000 mm/Tissue Culture Dish (IWAKI) with a medium (D-MEM, 2 mM glutamine, 10% fetal bovine serum) at 37° C. under 5% CO2.
(§3) Two colorectal cancer cell lines (HCT116 and DLD-1) were exposed to a drug, and 24 hours and 48 hours after drug exposure, cell viability was determined by means of an MTS assay (CellTiter96™AQueous One Solution Cell Proliferation Assay, Promega). Drug exposure conditions were as follows. 5-FU (single agent) was used at the following 11 concentrations: control (0 μM), 0.001 μM, 0.01 μM, 0.1 μM, 1 μM, 3 μM, 10 μM, 30 μM, 100 μM, 1,000 μM, and 10,000 μM. L-OHP (single agent) was used at the following 11 concentrations; control (0 μM), 0.001 μM, 0.01 μM, 0.1 μM, 0.3 μM, 1 μM, 3 μM, 10 μM, 30 μM, 100 μM, and 1,000 μM. […]
(§4) Sensitivity analysis was performed from viability data calculated from MTS assay results. The presence or absence of combined effect was determined through comparison of viability obtained by exposure to a combination with that obtained by exposure to a single agent at the same concentration as employed at the exposure to the combination.

HCT116 cells [4] = experiment: MTS assay cell viability after drug exposure, HCT116
Procedure: as §2, §3, §4

| SMILES | levels of proteins A to C and G to K after exposure (HCT116 cells [1]) | levels of proteins D and M after exposure (HCT116 cells [1]) | levels of proteins A to C and G to K after exposure (DLD-1 cells [2]) | levels of proteins D and M after exposure (DLD-1 cells [2]) | cell viability (DLD-1 cells [3]; DLD-1, 1 μM L-OHP, 48 hours) | cell viability (HCT116 cells [4]; HCT116, 1 μM L-OHP, 48 hours) | levels of proteins A to C, F, and H to K after exposure (HCT116 cells [1]) | levels of proteins A to C, F, and H to K after exposure (DLD-1 cells [2]) | viability at 100 µM (DLD-1 cells [3]; Homo sapiens, DLD-1, 48 h, read-out: cell viability) [%] | viability at 100 µM (HCT116 cells [4]; Homo sapiens, HCT-116, 48 h, read-out: cell viability) [%] |
| --- | --- | --- | --- | --- | --- | --- | --- | --- | --- | --- |
| O=C1[O][Pt]2([NH][C@@H]3CCCC[C@H]3[NH]2)[O]C1=O [L-OHP, (SP-4-2)-[(1R,2R)-cyclohexane-1,2-diamine-κN,κN′][ethanedioato(2-)-κO^1,κO^2]platinum] | no significant difference | decrease | increase | no significant difference | about 82% | about 37% |  |  |  |  |
| O=c1[nH]cc(F)c(=O)[nH]1 [5-FU, Fluorouracil] |  | decrease |  | no significant difference |  |  | no significant difference | increase | ~49 | ~24 |
